Legend:
[1] = acrylic acid at 20° C.
[2] = methyl methacrylate at 20° C.

dissolution time in acrylic acid [1]: 10 min | dissolution time in methyl methacrylate [2]: 3 min
SMILES: Oc1ccc(O)cc1 [crystalline hydroquinone, hydroquinone]

— patent publication US7235299B2, “Beads of a phenolic compound and a method of obtaining same” (Rhodia Chimie, priority 2002, dated 2007)
